Values of other authors as cited in patent US20240397942A1, “METHOD FOR PRODUCING REPELLENT OR ATTRACTANT FOR ORGANISMS, REPELLENT OR ATTRACTANT FOR ORGANISMS, AND METHOD FOR REPELLING OR ATTRACTING ORGANISMS” (Sony Group Corporation, priority 2021, published 2024).

How the values were obtained:
Conditions in all cases: in vivo
spider mites = tested on: spider mites
fruit flies = tested on: fruit flies
sirex woodwasps = tested on: sirex woodwasps
green tea leafhoppers = tested on: green tea leafhoppers
stink bugs = tested on: stink bugs
giant assassin bugs = tested on: giant assassin bugs
[1] = tested on: plant hoppers (rice pests)
[2] = tested on: house dust mites (indoor mites)
malaria mosquitoes = tested on: malaria mosquitoes
Asian tiger mosquitoes = tested on: Asian tiger mosquitoes
flour beetles = tested on: flour beetles
Mexican bean beetles = tested on: Mexican bean beetles
peach-potato aphids = tested on: peach-potato aphids
[3] = tested on: whiteflies (infection vector of tomato yellowing gangrene virus)
organisms = tested on: organisms

CCCCCCCCCCCCCCCC [hexadecane]
repellent effect on spider mites (spider mites): repellent effect

CC=O [acetaldehyde]
attractive (attractant) effect on fruit flies (fruit flies): attractant effect

CC(=O)CC(C)=O [acetylacetone]
repellent effect on sirex woodwasps (sirex woodwasps): repellent effect

hexadecene
repellent effect on green tea leafhoppers (green tea leafhoppers): repellent effect

CC(=O)c1ccccc1 [acetophenone]
attractive effect on stink bugs (stink bugs): attractive effect
repellent effect on sirex woodwasps (sirex woodwasps): repellent effect
repellent effect on giant assassin bugs (giant assassin bugs): repellent effect
attractive effect on plant hoppers (rice pests) [1]: attractive effect

CCCCCCCC=O [Example 1-octanal, 1-octanal]
attractant effect on house dust mites (indoor mites) [2]: attractant effect

CCCCCCCCCC=O [Example 1-decanal, 1-decanal]
attractant effect on house dust mites (indoor mites) [2]: attractant effect

CCCCCCCCCCCCCC [tetradodecane]
repellent effect on malaria mosquitoes (malaria mosquitoes): repellent effect

CC(=O)O [acetic acid]
attractant effect on Asian tiger mosquitoes (Asian tiger mosquitoes): attractant effect

C=CCCCCCCCCCCCC [1-tetradecene]
repellent effect on flour beetles (flour beetles): repellent effect
repellent effect on Mexican bean beetles (Mexican bean beetles): repellent effect

CCCCCC=O [Example 1-hexanal, 1-hexanal]
attractant effect on peach-potato aphids (peach-potato aphids): attractant effect

CCCCC(CC)CO (stereo not shown) [2-ethyl-1-hexanol]
attractant effect on whiteflies [3]: attractant effect

O=Cc1ccccc1 [benzaldehyde]
attractive (attractant) effect on fruit flies (fruit flies): attractive effect

C=Cc1ccccc1 [styrene]
repellent or attractant effect on organisms (organisms): no repellent or attractant effect

xylene
repellent effect on whiteflies [3]: repellent effect
